Results as given in ChEMBL document CHEMBL1201862, “PubChem BioAssay data set” (2004).
Active and inactive are the calls of the source.

Tests used:
[1] = molecular target: T1, Sentrin-specific protease 7 (Homo sapiens, UniProt Q9BQF6); experiment: SENP7 protease inhibitors, SAR follow-up, biochemical, luminescence, set 2 (AID 588600); format: functional
T1 sequence (Q9BQF6 whole entry): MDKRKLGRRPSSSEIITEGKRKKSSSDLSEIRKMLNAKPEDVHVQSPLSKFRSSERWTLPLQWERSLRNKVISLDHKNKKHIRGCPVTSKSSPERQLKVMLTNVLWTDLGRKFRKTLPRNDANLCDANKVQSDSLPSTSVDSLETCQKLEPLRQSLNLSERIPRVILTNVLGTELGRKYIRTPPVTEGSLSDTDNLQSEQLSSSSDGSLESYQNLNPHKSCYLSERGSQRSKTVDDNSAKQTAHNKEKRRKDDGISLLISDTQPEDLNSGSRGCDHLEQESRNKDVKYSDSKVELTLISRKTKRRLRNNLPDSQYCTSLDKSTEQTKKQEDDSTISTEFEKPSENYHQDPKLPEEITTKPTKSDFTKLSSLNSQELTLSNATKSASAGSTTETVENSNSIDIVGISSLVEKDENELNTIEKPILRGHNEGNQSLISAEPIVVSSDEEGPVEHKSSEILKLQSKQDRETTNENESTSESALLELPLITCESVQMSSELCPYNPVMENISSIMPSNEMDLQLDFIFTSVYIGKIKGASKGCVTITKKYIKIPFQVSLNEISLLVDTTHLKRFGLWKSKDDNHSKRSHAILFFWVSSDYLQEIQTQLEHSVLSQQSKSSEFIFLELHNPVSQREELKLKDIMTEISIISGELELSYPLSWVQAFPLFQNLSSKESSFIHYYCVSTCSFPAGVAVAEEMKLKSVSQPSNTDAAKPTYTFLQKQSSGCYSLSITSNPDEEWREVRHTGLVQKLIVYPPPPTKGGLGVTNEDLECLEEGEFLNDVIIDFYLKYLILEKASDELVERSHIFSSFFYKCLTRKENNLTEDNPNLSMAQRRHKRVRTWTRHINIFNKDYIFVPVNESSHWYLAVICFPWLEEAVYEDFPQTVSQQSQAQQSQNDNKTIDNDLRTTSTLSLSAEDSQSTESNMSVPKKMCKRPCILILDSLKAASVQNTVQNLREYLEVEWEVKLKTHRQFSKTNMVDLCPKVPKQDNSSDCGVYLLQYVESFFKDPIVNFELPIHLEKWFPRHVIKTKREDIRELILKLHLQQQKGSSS

[2] = molecular target: T2, Sentrin-specific protease 6 (Homo sapiens, UniProt Q9GZR1); experiment: SAR Analysis of small molecule inhibitors of Sentrin-specific protease 6 (SENP6) using a Luminescent assay. [Related pubchem assays (depositor defined):AID2582, AID2599]; format: functional
T2 sequence (Q9GZR1 whole entry): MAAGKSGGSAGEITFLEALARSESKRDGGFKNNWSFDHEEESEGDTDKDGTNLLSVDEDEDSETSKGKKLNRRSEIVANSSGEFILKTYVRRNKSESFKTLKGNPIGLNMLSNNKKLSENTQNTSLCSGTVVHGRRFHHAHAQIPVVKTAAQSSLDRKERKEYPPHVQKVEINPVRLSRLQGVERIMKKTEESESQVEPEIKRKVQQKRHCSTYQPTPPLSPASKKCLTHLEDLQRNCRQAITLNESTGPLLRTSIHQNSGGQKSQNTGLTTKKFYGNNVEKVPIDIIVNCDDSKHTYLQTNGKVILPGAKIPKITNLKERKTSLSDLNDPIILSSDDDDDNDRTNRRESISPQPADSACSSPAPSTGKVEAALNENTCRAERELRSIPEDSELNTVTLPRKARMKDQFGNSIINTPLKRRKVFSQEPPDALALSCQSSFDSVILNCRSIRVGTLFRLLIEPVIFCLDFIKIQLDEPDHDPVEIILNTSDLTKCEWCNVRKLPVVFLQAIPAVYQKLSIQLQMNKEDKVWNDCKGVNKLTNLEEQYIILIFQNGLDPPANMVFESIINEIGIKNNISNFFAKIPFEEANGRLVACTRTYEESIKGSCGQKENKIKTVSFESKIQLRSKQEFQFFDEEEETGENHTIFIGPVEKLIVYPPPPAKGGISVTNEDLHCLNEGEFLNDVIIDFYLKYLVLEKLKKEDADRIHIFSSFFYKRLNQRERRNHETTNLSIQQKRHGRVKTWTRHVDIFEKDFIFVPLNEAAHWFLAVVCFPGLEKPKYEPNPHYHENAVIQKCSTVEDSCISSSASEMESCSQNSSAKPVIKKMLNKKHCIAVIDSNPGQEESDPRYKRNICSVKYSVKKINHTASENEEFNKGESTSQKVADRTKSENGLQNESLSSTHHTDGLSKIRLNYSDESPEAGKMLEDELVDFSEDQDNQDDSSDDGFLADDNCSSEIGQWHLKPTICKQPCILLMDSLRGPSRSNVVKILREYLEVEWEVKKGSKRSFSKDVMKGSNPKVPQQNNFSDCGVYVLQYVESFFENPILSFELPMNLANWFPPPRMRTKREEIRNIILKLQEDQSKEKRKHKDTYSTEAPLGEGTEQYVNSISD

[3] = molecular target: T1, Sentrin-specific protease 7; experiment: SENP7 protease inhibitors, SAR follow-up, biochemical, luminescence (AID 504497); format: functional
[4] = molecular target: T3, Sentrin-specific protease 8 (Homo sapiens, UniProt Q96LD8); experiment: SENP8 protease inhibitors, SAR follow-up, biochemical, luminescence, set 2 (AID 588601); format: functional
T3 sequence (Q96LD8 whole entry): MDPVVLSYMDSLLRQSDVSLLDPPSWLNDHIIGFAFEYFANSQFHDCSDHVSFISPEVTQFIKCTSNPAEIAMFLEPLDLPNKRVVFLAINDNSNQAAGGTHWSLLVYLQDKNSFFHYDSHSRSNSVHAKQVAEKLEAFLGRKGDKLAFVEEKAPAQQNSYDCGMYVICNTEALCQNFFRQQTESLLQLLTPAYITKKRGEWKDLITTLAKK

Caspase-3 [5] = molecular target: T4, Caspase-3 (Homo sapiens, UniProt P42574); experiment: caspase-3 inhibitors as off-family protease, SAR follow-up, selectivity assay for SENP protease inhibitor project, biochemical, luminescence, set 2 (AID 588599); format: functional
T4 sequence (P42574 whole entry): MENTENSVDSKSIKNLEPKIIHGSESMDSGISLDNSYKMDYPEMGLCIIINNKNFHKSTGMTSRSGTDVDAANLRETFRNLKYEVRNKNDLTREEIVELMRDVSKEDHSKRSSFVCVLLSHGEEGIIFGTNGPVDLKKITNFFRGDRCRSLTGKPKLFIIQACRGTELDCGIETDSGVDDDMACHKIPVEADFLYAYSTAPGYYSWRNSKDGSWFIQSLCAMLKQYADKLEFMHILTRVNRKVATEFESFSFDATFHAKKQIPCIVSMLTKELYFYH

Caspase-3 [6] = molecular target: T4, Caspase-3; experiment: SAR Analysis of small molecule inhibitors of Sentrin-specific proteases (SENPs) using a Caspase-3 Selectivity assay. [Related pubchem assays (depositor defined):AID2540, AID2599, AID434973, AID489001]; format: functional
[7] = molecular target: T3, Sentrin-specific protease 8; experiment: SENP8 protease inhibitors, SAR follow-up, biochemical, luminescence (AID 504501); format: functional
[8] = molecular target: T2, Sentrin-specific protease 6; experiment: SENP6 protease inhibitors, SAR follow-up, biochemical, luminescence, set 2 (AID 588598); format: functional
[9] = THP-1 cell cytotoxicity, cytotoxicity control, set 4 (AID 504911); format: functional; settings: Mycobacterium tuberculosis
[10] = Vero cell cytotoxicity, cytotoxicity control for M. tuberculosis inhibitor project, purified and synthesized samples, set 3 (AID 504684); format: functional
[11] = THP-1 cell cytotoxicity, dose response, cytotoxicity control, set 3 (AID 504852); format: functional; settings: Mycobacterium tuberculosis
Candida albicans [12] = experiment: growth inhibition of resistant C. albicans, dose response, CaCi-8, fluconazole, Alamar Blue, dry powder (AID 488807); format: functional, organism-based
Candida albicans [13] = experiment: fluconazole resistance reversal in C. albicans, dose response, CaCi-2 strain, Alamar Blue, dry powder, set 4 (AID 488943); format: functional, organism-based
Candida albicans [14] = experiment: growth inhibition of resistant C. albicans, dose response, CaCi-8 strain, fluconazole, dry powder, set 4 (AID 488950); format: functional, organism-based
Candida albicans [15] = experiment: single-agent growth inhibition of C. albicans, dose response, counter-screen for antifungal drug resistance project, C. albicans CaCi-2, dry powder (AID 488802); format: functional, organism-based
NIH3T3 = experiment: cytotoxicity in NIH-3T3 fibroblasts, dose response, cytotoxicity control for antifungal drug resistance project, cell-based, Alamar Blue, fluconazole, dry powder (AID 488809); format: functional; settings: Mus musculus
[16] = molecular target: DNA dC->dU-editing enzyme APOBEC-3A (Homo sapiens, UniProt P31941); experiment: SAR analysis of small molecule inhibitors of APOBEC3A DNA Deaminase via a fluorescence-based single-stranded DNA deaminase assay.; format: functional; settings: read-out: IC50_Mean
Chain of DNA dC->dU-editing enzyme APOBEC-3A (P31941 whole entry): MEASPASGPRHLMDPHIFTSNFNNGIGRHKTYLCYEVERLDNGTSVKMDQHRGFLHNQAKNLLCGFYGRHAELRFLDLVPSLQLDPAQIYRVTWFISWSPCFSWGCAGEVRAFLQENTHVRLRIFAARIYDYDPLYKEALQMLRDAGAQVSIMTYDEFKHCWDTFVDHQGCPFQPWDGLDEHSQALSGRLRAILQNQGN

[17] = molecular target: DNA dC->dU-editing enzyme APOBEC-3G (Homo sapiens, UniProt Q9HC16); experiment: APOBEC3G deaminase inhibitors, SAR follow-up, biochemical, fluorescence, single-stranded DNA substrate (AID 602136); format: functional; settings: read-out: IC50_Mean
Chain of DNA dC->dU-editing enzyme APOBEC-3G (Q9HC16 whole entry): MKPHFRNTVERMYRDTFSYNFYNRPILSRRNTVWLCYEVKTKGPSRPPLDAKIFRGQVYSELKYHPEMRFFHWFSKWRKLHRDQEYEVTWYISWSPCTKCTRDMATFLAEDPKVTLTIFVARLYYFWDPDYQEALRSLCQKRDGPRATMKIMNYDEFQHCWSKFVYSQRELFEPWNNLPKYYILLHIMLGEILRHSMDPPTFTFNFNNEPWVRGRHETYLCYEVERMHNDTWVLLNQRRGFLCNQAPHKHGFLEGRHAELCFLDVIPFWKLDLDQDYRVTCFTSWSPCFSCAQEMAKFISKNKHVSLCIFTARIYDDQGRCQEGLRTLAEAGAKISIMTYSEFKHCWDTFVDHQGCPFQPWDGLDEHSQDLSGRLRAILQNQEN

Streptokinase A = molecular target: T5, Streptokinase A (Streptococcus pyogenes serotype M1, UniProt P10520); experiment: S. pyogenes streptokinase expression inhibitors, potency, dose response, plasminogen activation absorbance, OD405 (AID 1914); format: functional, Streptococcus pyogenes M1 GAS;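 also: secreted streptokinase activity via plasminogen activation per viability signal from cell pellet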
T5 sequence (P10520 whole entry): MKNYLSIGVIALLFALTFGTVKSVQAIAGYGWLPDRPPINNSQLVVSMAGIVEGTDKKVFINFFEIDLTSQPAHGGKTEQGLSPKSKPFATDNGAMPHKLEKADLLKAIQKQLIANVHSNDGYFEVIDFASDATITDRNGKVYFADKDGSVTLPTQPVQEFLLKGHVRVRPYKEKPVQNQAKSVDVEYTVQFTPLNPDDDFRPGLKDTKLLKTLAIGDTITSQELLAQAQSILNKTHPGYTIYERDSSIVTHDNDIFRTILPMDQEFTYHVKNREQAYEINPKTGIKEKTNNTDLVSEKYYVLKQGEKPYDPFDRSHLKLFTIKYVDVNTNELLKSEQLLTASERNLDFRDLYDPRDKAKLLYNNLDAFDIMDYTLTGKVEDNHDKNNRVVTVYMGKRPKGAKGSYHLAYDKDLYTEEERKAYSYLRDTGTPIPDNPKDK

[18] = system: Streptococcus sp. 'group A'; experiment: growth inhibition of control SK(-) GAS strain, dose response, counter-screen for streptokinase expression inhibitor project, luminescence, kanamycin, BacTiterGlo, confirmation (AID 1900); format: functional, organism-based
Streptococcus = experiment: Group A Streptococcus viability loss, dose response, counter-screen for streptokinase expression inhibitor project, luminescence, BacTiterGlo (AID 1915); format: functional, organism-based;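 also: potency for reduction of bacterial viability or growth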
[19] = molecular target: T6, Corticotropin-releasing factor receptor 2/Corticotropin-releasing factor-binding protein (Homo sapiens, UniProt P24387+Q13324); experiment: activators of CRF receptor 2 with binding protein – uHTS hits, confirmation (AID 602473); format: functional; settings: read-out: EC50_Mean
T6 sequence (Q13324 whole entry): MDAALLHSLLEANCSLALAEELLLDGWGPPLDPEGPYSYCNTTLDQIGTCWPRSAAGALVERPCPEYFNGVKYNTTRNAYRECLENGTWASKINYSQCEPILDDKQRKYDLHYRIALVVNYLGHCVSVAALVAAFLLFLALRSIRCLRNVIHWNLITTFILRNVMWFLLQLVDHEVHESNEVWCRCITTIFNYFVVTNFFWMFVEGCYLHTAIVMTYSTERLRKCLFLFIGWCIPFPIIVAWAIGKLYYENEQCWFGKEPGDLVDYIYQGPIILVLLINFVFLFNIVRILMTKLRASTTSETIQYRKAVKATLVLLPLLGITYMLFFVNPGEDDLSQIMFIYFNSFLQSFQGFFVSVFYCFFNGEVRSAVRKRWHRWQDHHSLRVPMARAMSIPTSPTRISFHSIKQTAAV
T6 sequence (P24387 whole entry): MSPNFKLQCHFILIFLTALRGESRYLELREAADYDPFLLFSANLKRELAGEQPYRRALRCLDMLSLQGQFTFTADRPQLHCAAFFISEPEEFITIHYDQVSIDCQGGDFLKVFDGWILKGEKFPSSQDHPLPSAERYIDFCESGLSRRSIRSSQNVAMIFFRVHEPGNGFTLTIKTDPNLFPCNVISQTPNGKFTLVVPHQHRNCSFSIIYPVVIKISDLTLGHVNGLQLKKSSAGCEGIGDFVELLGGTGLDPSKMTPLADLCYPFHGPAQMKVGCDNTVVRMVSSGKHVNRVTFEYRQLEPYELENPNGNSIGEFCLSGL

Cysteine protease ATG4B = Cysteine protease ATG4B (Homo sapiens, UniProt Q9Y4P1); format: functional;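 also: Fluorescence-based dose-response confirmation assay measuring inhibition of ATG4B activity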
Chain of Cysteine protease ATG4B (Q9Y4P1 whole entry): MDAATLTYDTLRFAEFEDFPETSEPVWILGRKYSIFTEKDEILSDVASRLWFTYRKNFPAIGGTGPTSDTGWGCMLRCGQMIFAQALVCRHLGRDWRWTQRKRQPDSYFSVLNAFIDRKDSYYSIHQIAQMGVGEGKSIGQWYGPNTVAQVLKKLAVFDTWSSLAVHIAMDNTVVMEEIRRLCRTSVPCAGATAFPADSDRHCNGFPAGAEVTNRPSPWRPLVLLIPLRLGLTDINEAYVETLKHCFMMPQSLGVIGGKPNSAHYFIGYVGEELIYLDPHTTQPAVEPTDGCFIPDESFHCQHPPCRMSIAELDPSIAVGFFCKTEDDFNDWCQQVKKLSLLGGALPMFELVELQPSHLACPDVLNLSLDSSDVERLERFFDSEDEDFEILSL

Phospholipase A2 = Phospholipase A2 (Homo sapiens, UniProt P04054); format: functional;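 also: confirmatory dose-response counterscreen on phospholipase A2, testing hits that came from an ultra-high-throughput screen for ATG4B inhibitors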
Chain of Phospholipase A2 (P04054 whole entry): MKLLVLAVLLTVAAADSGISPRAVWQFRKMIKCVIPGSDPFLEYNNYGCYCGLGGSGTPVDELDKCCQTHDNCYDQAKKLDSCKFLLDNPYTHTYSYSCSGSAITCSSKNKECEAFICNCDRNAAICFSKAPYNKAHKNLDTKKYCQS

[20] = Luminescence Cell-Based Dose Retest to Confirm Inhibitors of Cancer Stem Cells. [Related pubchem assays (depositor defined):AID2717, AID2721]; format: functional; settings: Homo sapiens

Oc1ccccc1-c1nc(/C=C/c2ccccc2)no1
active: IC50 [1] 2.71 µM | IC50 [2] 8.4 µM | IC50 [3] 2.8 µM | IC50 [4] 2.54 µM | IC50 (Caspase-3 [5]) 3.6 µM | IC50 (Caspase-3 [6]) 6.9 µM | IC50 [7] 71 µM | IC50 [8] 2.12 µM

Cc1[nH]c(SCC(=O)N(C)c2ccccc2)nc(=O)c1C
active: CC50 [9] > 100 µM | CC50 [10] > 100 µM | CC50 [11] > 100 µM

O=C(c1ccc(Cl)c(Cl)c1)N1CCN(c2ccnc3cc(Cl)ccc23)CC1
active: AC50 (Candida albicans [12]) 1.14 µM | AC50 (Candida albicans [13]) 0.726 µM | AC50 (Candida albicans [14]) 0.515 µM | AC50 (Candida albicans [15]) 45.2 µM | AC50 (NIH3T3) 43.6 µM

O=C(CSc1nnc2scc(-c3ccc(Cl)cc3)n12)N1CCOCC1
inactive: IC50 [16] > 99 µM | IC50 [17] 28 µM

Cc1cc(C)cc(-n2c(C)cc(/C=C3\C(=N)N4N=C(CC(C)C)SC4=NC3=O)c2C)c1
> 50 µM (not active): EC50 (Streptokinase A)
active: EC50 [18] 4.57 µM | EC50 (Streptococcus) 9.46 µM | EC50 [19] 6.77 µM | IC50 (Cysteine protease ATG4B) 3.65 µM | IC50 (Phospholipase A2) 2.3 µM | AC50 [20] 2.82 µM
